From article PMC6470603, “Design and Synthesis of Matrine Derivatives as Novel Anti-Pulmonary Fibrotic Agents via Repression of the TGFβ/Smad Pathway” (Molecules, 2019)

Assays:
[1] = test system: TGF-β1 induced total collagen accumulation in MRC-5 cells; assay: Sircol collagen assay: inhibition of TGF-β1-induced total collagen accumulation; type: cell-based, human; conditions: for IC50: Homo sapiens, MRC5, 10 ng/mL TGF-β1, 48 h, Sircol collagen assay; for SI, selectivity index (SI = CC50/IC50): MRC-5 cells
Procedure: Higher SI values indicates better safety profile.
MRC-5 cells in 1 × 10^5 cells/mL density were seeded in TC treated 96-well plates and allowed to reach confluence for 48 h. The cells were then starved using MEM-NEAA containing 0.2% BSA for 24 h. After starvation, the medium was changed to MEM-NEAA supplemented with 0.2% BSA, 100 μM L-Proline, 100 μM Ascorbic acid, with or without 10 ng/mL TGF-β1 (Peprotech) in the presence of vehicle or different concentrations of compounds. After 48 h incubation, the MRC-5 cells were washed with phosphate buffered saline (PBS) and fixed in −20 °C precooled methanol for 10 min. The cells were than washed with PBS before incubation in 0.1% PSR staining solution (0.1% Sirus red in saturated water solution of picric acid) for 1 h. The staining solution was then removed and the cells were washed with 0.1% acetic acid for three times. 200 μL of 0.1 mol/L sodium hydroxide solution were added to each well and the plates were placed on a rocking platform for 1 h. The optical density (OD) values at 550 nm were determined with an Infinite 2000 spectrophotometer.

[2] = test system: Collagen type I alpha-1 chain (COL1A1) in MRC-5 cells; assay: Immunofluorescence assay, COL1A1 expression; type: cell-based, human; conditions: 10 μM, 48 h, 10 ng/mL TGF-β1, mean fluorescence intensity
Procedure: (§1) Due to the significance of collagen in IPF pathogenesis, we first evaluated the inhibitory effect of key compound 3f against collagen accumulation. Immunofluorescence staining was employed to investigate collagen protein expression.
(§2) MRC-5 cells were seeded on 0.2% gelatin-coated glass coverslips and treated with or without 10 ng/mL TGF-β1 in the presence of vehicle or 10 μM 3f for 48 h. The cells were washed with PBS and fixed in freshly prepared 4% paraformaldehyde (PFA) at room temperature for 10 min. The cells were then permeabilized with 0.25% Triton X-100 for 10 min before 30 min of blocking by PBS solution supplemented with 1% BSA and 22.5 mg/mL glycine (the permeabilization was omitted for S100A4 and TGFβRI staining). The cells were incubated with primary antibody overnight at 4 °C and labeled with AlexaFluor 488-conjugated or Dylight 488-conjugated secondary antibody. […] The mean fluorescence intensity (MFI) of each photo was calculated by ImageJ. […]

[3] = test system: Collagen type III alpha-1 chain (COL3A1) in MRC-5 cells; assay: Immunofluorescence assay, COL3A1 expression; type: cell-based, human; conditions: 10 μM, 48 h, 10 ng/mL TGF-β1, mean fluorescence intensity
Procedure: as §1, §2

[4] = test system: fibronectin in MRC-5 cells; assay: Immunofluorescence assay, fibronectin expression; type: cell-based, human; conditions: 10 μM, 48 h, 10 ng/mL TGF-β1, mean fluorescence intensity
Procedure: Next, we evaluated the inhibitory effect of 3f against fibronectin expression. Fibronectin is another major constituent of ECM and plays a critical role in fibrogenesis by promoting the migration, proliferation, and adhesion of fibroblasts.
as §2

[5] = test system: alpha-smooth muscle actin (α-SMA) in MRC-5 cells; assay: Immunofluorescence assay, α-SMA expression (fibroblast-to-myofibroblast transition); type: cell-based, human; conditions: 10 μM, 48 h, 10 ng/mL TGF-β1, mean fluorescence intensity
From the text: (§3) Myofibroblasts, a further differentiated subset of fibroblasts, are primary effector cells for collagen synthesis in fibrotic disorders. Inhibition of fibroblast differentiation is an important therapeutic target for IPF treatment. To examine whether 3f could inhibit TGF-β1-induced fibroblast-to-myofibroblast transition, we investigated the expression level of alpha-smooth muscle actin (α-SMA) and S100A4, the key markers which distinguish myofibroblasts from their precursor fibroblasts. We observed dramatic upregulation of myofibroblast markers in response to TGF-β1 stimulation (774.9% and 537.7% for α-SMA and S100A4, respectively), characterizing a strong expression of myofibroblast phenotype.
as §2, with “staining).” for “staining). The cells were incubated with primary antibody overnight at 4 °C and labeled with AlexaFluor 488-conjugated or Dylight 488-conjugated secondary antibody.”

S100A4 in MRC-5 cells = assay: Immunofluorescence assay, S100A4 expression (fibroblast-to-myofibroblast transition); type: cell-based, human; conditions: 10 μM, 48 h, 10 ng/mL TGF-β1, mean fluorescence intensity
From the text: as §3
as §2, with “staining).” for “staining). The cells were incubated with primary antibody overnight at 4 °C and labeled with AlexaFluor 488-conjugated or Dylight 488-conjugated secondary antibody.”

Smad2/3 in MRC-5 cells = assay: Immunofluorescence assay, cellular localization of Smad2/3; type: cell-based, human; conditions: 10 μM, 48 h, 10 ng/mL TGF-β1
From the text: Small mothers against decapentaplegic homologs (Smad) are key mediators and regulators of TGFβ signaling. The binding of TGF-β1 to TGFβ receptors leads to the phosphorylation of Smad2/3 complex, which then translocate into nucleus to enhance gene transcription by cooperating with DNA transcription factors. Inhibition of the nuclear translocation of Smad2/3 could attenuate the transcription of profibrotic genes such as collagens and α-SMA. Therefore, we investigated the cellular localization of Smad2/3 by immunofluorescence assay. As depicted in Figure 6A, Smad2/3 predominately localize in cytoplasm under normal conditions, but translocate into nucleus upon TGF-β1 stimulation.
as §2, with “staining).” for “staining). The cells were incubated with primary antibody overnight at 4 °C and labeled with AlexaFluor 488-conjugated or Dylight 488-conjugated secondary antibody.”

[6] = test system: TGF-β receptor type I (TGFβRI) in MRC-5 cells; assay: Immunofluorescence assay, TGFβRI expression; type: cell-based, human; conditions: 10 μM, 48 h, 10 ng/mL TGF-β1, mean fluorescence intensity
From the text: Another emerging effect of Smad which acts as the amplifier of TGF-β signaling also contribute to fibrotic diseases. The nuclear translocation of Smad3 leads to the activation of the miR-433 promotor region. miR-433 promotes the decrease of antizyme inhibitor I (Azin1) and eventually results in depletion of polyamine, which causes the upregulation of expression level of TGF-β receptor type I (TGFβRI) and TGF-β1. This series of signaling creates a positive-feedback loop which amplify the TGFβ signaling.
as §2

MRC-5 fibroblasts = assay: Scratch (wound healing) assay, TGF-β1-induced fibroblast migration; type: cell-based, human; conditions: 10 μM, 10 ng/mL TGF-β1, 24 h (TGF-β1 alone 85.0%)
Procedure: Fibroblast migration is the key event in pulmonary fibrogenesis. […] Inhibition of lung fibroblasts migration is a promising potential therapeutic target for IPF. We performed wound healing assay to investigate the inhibitory effect of 3f and matrine against fibroblast migration (Figure 7).
MRC-5 cells were seeded on 6-well plates and allowed to reach confluence for 48 h. The cell monolayer was gently scratched with a 1 mL pipette tip across the center of the well. After scratching, the cells were washed twice with medium to remove detached cells. The cells were then treated with or without 10 ng/mL TGF-β1 in the presence of vehicle or 10 μM 3f for 24 h. The gap area in wound region was quantitatively evaluated using ImageJ [30] and MRI wound healing tool plugin [31].

[7] = Cytotoxicity assay (CCK-8); conditions: human, MRC-5 cells (human fetal lung fibroblasts)
Procedure: (§4) Cytotoxicity of all compounds were also determined against MRC-5 cells, so as to calculate selectivity index (SI, CC50/IC50).
(§5) MRC-5 cells in passage between 21 to 26 were used for experiments.
(§6) MRC-5 cells were incubated with different concentrations of compounds for 48 h, and then 10 μL of CCK-8 solution were added to each well. The cells were incubated at 37 °C for another 3 h before determining the OD values at 492 nm. DMSO at 0.1% v/v final concentration was used to solubilize the test compounds, except for compound 3b, 3c, and 3e, where 1% v/v DMSO was used to ensure complete solubilization.

in vitro = conditions: human
Procedure: as §4, §5, §6

SMILES: O=C1CC(n2ccc3cc(Cl)ccc32)CC2C3CCCN4CCCC(CN12)C34 (centres unmarked) [3f, 13-(5-chloro-1H-indol-1-yl)-matrine]
- IC50 [1]: 3.3 ± 0.3 µM
- SI, selectivity index (SI = CC50/IC50) [1]: 8.0
- decrease in expression level of COL1A1 relative to TGF-β1 stimulation group [2]: 46.2%
- decrease in expression level of COL3A1 relative to TGF-β1 stimulation group [3]: 31.1%
- reduction of expression level of fibronectin comparing to TGF-β1 stimulation group [4]: 40.0%
- downregulation in expression level of α-SMA compared to TGF-β1 stimulation group [5]: 45.8%
- downregulation in expression level of S100A4 compared to TGF-β1 stimulation group (S100A4 in MRC-5 cells): 17.7%
- effect on cytoplasm-to-nuclear translocation of Smad2/3 (Smad2/3 in MRC-5 cells): significantly inhibit the cytoplasm-to-nuclear translocation of Smad2/3
- reduction of TGF-β1-induced upregulation of TGFβRI expression level [6]: 46.7%
- closure of wound area over 24 h period (MRC-5 fibroblasts): 37.7%
- CC50 at 48 h [7]: 26.7 ± 0.7 µM

SMILES: O=C1C=CC[C@@H]2[C@H]3CCCN4CCC[C@@H](CN12)[C@@H]34 [Sophocarpine, reference compound]
- IC50 [1]: 1190 ± 135 µM
- SI, selectivity index (SI = CC50/IC50) [1]: 2.7
- CC50 at 48 h (in vitro): 3160 ± 355 µM
